Measured values: US20220002314A1 (priority 2018, published 2022)
Read-outs that look alike come from different tables or passages of the source.

Tests used:
[1] = target: Human α2δ-1 subunit of Cav2.2 calcium channel (Homo sapiens, UniProt P54289); experiment: biochemical; format: binding
[2] = target: Human μ-opioid receptor (Homo sapiens, UniProt P35372); experiment: biochemical; format: binding
Sequence of Human μ-opioid receptor (P35372 whole entry): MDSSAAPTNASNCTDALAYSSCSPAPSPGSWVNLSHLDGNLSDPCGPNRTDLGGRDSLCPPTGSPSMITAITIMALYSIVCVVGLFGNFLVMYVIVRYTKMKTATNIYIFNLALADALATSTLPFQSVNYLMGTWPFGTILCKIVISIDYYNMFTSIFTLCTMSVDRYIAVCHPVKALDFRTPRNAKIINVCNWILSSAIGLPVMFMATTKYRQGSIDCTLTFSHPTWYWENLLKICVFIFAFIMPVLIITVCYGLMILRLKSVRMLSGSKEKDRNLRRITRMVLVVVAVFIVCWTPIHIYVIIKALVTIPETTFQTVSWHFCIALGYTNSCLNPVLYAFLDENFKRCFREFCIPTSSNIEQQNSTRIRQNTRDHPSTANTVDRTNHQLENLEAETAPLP

Sequence of Human α2δ-1 subunit of Cav2.2 calcium channel (P54289 25-1103): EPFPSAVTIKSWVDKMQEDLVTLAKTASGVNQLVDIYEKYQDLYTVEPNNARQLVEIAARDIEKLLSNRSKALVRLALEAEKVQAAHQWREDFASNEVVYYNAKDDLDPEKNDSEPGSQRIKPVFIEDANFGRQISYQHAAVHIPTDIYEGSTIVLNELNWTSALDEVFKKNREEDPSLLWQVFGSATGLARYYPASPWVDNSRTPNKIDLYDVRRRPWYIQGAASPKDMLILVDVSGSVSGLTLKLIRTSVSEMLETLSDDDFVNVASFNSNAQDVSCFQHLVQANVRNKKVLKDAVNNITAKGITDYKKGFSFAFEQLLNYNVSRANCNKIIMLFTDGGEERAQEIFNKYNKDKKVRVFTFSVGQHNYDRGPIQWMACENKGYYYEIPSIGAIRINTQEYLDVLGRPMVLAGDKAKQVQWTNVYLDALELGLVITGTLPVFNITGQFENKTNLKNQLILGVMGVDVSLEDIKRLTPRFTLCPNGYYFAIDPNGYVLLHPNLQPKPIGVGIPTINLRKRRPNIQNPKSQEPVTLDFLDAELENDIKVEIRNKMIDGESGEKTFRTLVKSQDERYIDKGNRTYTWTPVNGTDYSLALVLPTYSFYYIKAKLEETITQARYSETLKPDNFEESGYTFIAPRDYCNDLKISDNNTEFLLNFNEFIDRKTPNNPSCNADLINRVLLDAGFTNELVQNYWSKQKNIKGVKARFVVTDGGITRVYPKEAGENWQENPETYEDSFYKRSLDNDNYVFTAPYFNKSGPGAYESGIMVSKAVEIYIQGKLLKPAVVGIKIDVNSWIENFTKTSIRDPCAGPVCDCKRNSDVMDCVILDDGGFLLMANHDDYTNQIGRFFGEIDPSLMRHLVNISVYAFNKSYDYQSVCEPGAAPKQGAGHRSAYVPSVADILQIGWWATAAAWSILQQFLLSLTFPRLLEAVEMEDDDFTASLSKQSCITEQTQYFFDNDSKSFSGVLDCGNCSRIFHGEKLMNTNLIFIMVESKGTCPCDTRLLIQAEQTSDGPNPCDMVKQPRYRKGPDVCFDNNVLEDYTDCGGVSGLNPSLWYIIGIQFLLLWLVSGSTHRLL

| SMILES | Ki ([1]; read-out: α2δ-1 binding) [nM] | Ki ([2]; read-out: μ-binding) [nM] | Ki [1] [nM] | Ki [2] [nM] |
| --- | --- | --- | --- | --- |
| CCCC(c1nc2ccccc2c(=O)n1CCN(C)CCc1ccccc1)N1C[C@@H](C)N[C@@H](C)C1 (stereo partly drawn) [Example 129, 2-(1-((3S,5R)-3,5-dimethylpiperazin-1-yl)butyl)-3-(2-(methyl(phenethyl)amino)ethyl)quinazolin-4(3H)-one] | 500 to 5000 | > 500 | – | – |
| CCCC(c1nc2cc(C)c(Br)cc2c(=O)n1CC)N1C[C@@H](C)N[C@@H](C)C1 (stereo partly drawn) [Example 19, 6-bromo-2-(1-((3S,5R)-3,5-dimethylpiperazin-1-yl)butyl)-3-ethyl-7-methylquinazolin-4(3H)-one] | – | – | < 500 | > 500 |
| CCC[C@@H](c1nc2ccncc2c(=O)n1CC)N1CCN[C@@H](C)C1 [Example 67, 3-ethyl-2-((S)-1-((S)-3-methylpiperazin-1-yl)butyl)pyrido[4,3-d]pyrimidin-4(3H)-one] | – | – | > 5000 | > 500 |
| CCCC(c1nc2ccc(N(C)CCNC)cc2c(=O)n1CC)N1C[C@@H](C)N[C@@H](C)C1 (stereo partly drawn) [Example 146, 2-(1-((3S,5R)-3,5-dimethylpiperazin-1-yl)butyl)-3-ethyl-6-(methyl(2-(methylamino)ethyl)amino)quinazolin-4(3H)-one] | – | – | < 500 | > 500 |
| CCCC(c1nc2ccc(Br)cc2c(=O)n1CC(=O)O)N1C[C@@H](C)N[C@@H](C)C1 (stereo partly drawn) [Example 126, 2-(6-bromo-2-(1-((3S,5R)-3,5-dimethylpiperazin-1-yl)butyl)-4-oxoquinazolin-3(4H)-yl)acetic acid] | > 5000 | > 500 | – | – |
| CCCC(c1nc2ccc(N3CC=C(c4ccccc4O)CC3)cc2c(=O)n1CC)N1C[C@@H](C)N[C@@H](C)C1 (stereo partly drawn) [Example 148, 2-(1-((3S,5R)-3,5-dimethylpiperazin-1-yl)butyl)-3-ethyl-6-(4-(2-hydroxyphenyl)-5,6-dihydropyridin-1(2H)-yl)quinazolin-4(3H)-one] | – | – | < 500 | > 500 |
| CCCC(c1nc2cc(NCCNC)ccc2c(=O)n1CC)N1C[C@@H](C)N[C@@H](C)C1 (stereo partly drawn) [Example 147, 2-(1-((3S,5R)-3,5-dimethylpiperazin-1-yl)butyl)-3-ethyl-7-((2-(methylamino)ethyl)amino)quinazolin-4(3H)-one] | – | – | < 500 | > 500 |
| CCCC(c1nc2ccc(NCCNC)cc2c(=O)n1CC)N1C[C@@H](C)N[C@@H](C)C1 (stereo partly drawn) [Example 145, 2-(1-((3S,5R)-3,5-dimethylpiperazin-1-yl)butyl)-3-ethyl-6-((2-(methylamino)ethyl)amino)quinazolin-4(3H)-one] | – | – | < 500 | > 500 |
| CCCC(c1nc2ccc(Br)cc2c(=O)n1CCC(=O)O)N1C[C@@H](C)N[C@@H](C)C1 (stereo partly drawn) [Example 125, 3-(6-Bromo-2-(1-((3S,5R)-3,5-dimethylpiperazin-1-yl)butyl)-4-oxoquinazolin-3(4H)-yl)propanoic acid] | – | – | 500 to 5000 | 100 to 500 |
| CCC[C@@H](c1nc2ccc(Br)cc2c(=O)n1CC)N1CCN[C@H](CO)C1 [Example 59, 6-bromo-3-ethyl-2-((S)-1-((S)-3-(hydroxymethyl)piperazin-1-yl)butyl)quinazolin-4(3H)-one] | – | – | > 5000 | > 500 |
| CCC[C@H](c1nc2cc(F)c(F)cc2c(=O)n1CC)N1CCN[C@@H](C)C1 [Example 216, 3-ethyl-6,7-difluoro-2-((R)-1-((S)-3-methylpiperazin-1-yl)butyl)quinazolin-4(3H)-one] | – | – | < 500 | 100 to 500 |
| CCC[C@H](c1nc2cc(Cl)c(Cl)cc2c(=O)n1CC)N1CCN[C@@H](C)C1 [Example 49, 6,7-Dichloro-3-ethyl-2-((R)-1-((S)-3-methylpiperazin-1-yl)butyl)quinazolin-4(3H)-one] | – | – | < 500 | 100 to 500 |
| CCC[C@@H](c1nc2ncc(Br)cc2c(=O)n1CCC)N1CCN[C@@H](C)C1 [Example 73, 6-bromo-2-((S)-1-((S)-3-methylpiperazin-1-yl)butyl)-3-propylpyrido[2,3-d]pyrimidin-4(3H)-one] | – | – | > 5000 | > 500 |
| CCC[C@H](c1nc2ccccc2c(=O)n1CC)N1C[C@@H](C)N[C@@H](C)C1 [Example 34, 2-((R)-1-((3S,5R)-3,5-dimethylpiperazin-1-yl)butyl)-3-ethylquinazolin-4(3H)-one] | – | – | < 500 | > 500 |
| CCC[C@@H](c1nc2cccnc2c(=O)n1CC)N1CCN[C@@H](C)C1 [Example 71, 3-ethyl-2-((S)-1-((S)-3-methylpiperazin-1-yl)butyl)pyrido[3,2-d]pyrimidin-4(3H)-one] | – | – | > 5000 | > 500 |
| CCCC(c1nc2cc(C(=O)NCc3ccccc3)ccc2c(=O)n1CC)N1C[C@@H](C)N[C@@H](C)C1 (stereo partly drawn) [Example 180, N-Benzyl-2-(1-((3S,5R)-3,5-dimethylpiperazin-1-yl)butyl)-3-ethyl-4-oxo-3,4-dihydroquinazoline-7-carboxamide] | – | – | < 500 | > 500 |
| CCC[C@@H](c1nc2cc(O[C@H](CNC)c3ccccc3)ccc2c(=O)n1C)N1C[C@@H](C)N[C@@H](C)C1 [Example 168, 2-((S)-1-((3S,5R)-3,5-dimethylpiperazin-1-yl)butyl)-3-methyl-7-((S)-2-(methylamino)-1-phenylethoxy)quinazolin-4(3H)-one] | – | – | 500 to 5000 | > 500 |
| CCCC(c1nc2ccccc2c(=O)n1CCOC)N1CCNCC1 (stereo not shown) [Example 117, 3-(2-methoxyethyl)-2-(1-(piperazin-1-yl)butyl)quinazolin-4(3H)-one] | – | > 500 | 500 to 5000 | – |
| CCC[C@H](c1nc2ccc(Br)cc2c(=O)n1CC)N1CCN[C@H](CO)C1 [Example 58, 6-Bromo-3-ethyl-2-((R)-1-((S)-3-(hydroxymethyl)piperazin-1-yl)butyl)quinazolin-4(3H)-one] | – | – | < 500 | > 500 |
| CCC[C@H](c1nc2cc(F)c(Cl)cc2c(=O)n1C)N1CCN[C@@H](C)C1 [Example 221, 6-chloro-7-fluoro-3-methyl-2-((R)-1-((S)-3-methylpiperazin-1-yl)butyl)quinazolin-4(3H)-one] | – | – | 500 to 5000 | < 100 |
